Measured values: paper PMC9386018, “A lymphatic-absorbed multi-targeted kinase inhibitor for myelofibrosis therapy” (Nature Communications, 2022)
Where “and” joins values, the source holds several entries; their conditions need not be identical. Equal entries are not always repeated.

Key:
mTOR = mTOR (Homo sapiens, UniProt P42345); test: Target kinase 10-point inhibition assay, mTOR; format: biochemical; conditions: replicates
Experimental: (§1) Quantitation of kinase inhibition was carried out by Life Technologies (Madison, WI) using the SelectScreen profiling platforms Z’-LYTE^TM and Adapta^TM. Single-point broad panel kinome screening was performed at 2.5 µM LP-182 against all kinases within the Z’-LYTE^TM and Adapta^TM assays (321 kinase isoforms, holoenzymes, or mutant variants). The average percent kinase inhibition from replicate data was ranked low to high, converted to a compatible identifier format, then input into Coral Human Kinome Visualization software for presentation analysis. […] Scaling of evolutionary distance for PI kinases is only relative and is based on literature analysis[62],[63]. Average percent kinome inhibition values from replicate data are supplied in Source Data file. […]. Corrected data was normalized to vehicle treated control values, and dose response percent kinase activity was analyzed by non-linear regression for determination of IC50 values.

PI3Kγ = PI3Kγ (Homo sapiens, UniProt P48736); test: Target kinase 10-point inhibition assay, PI3Kγ; format: biochemical; conditions: PI3K gamma, replicates
Chain of PI3Kγ (P48736 whole entry): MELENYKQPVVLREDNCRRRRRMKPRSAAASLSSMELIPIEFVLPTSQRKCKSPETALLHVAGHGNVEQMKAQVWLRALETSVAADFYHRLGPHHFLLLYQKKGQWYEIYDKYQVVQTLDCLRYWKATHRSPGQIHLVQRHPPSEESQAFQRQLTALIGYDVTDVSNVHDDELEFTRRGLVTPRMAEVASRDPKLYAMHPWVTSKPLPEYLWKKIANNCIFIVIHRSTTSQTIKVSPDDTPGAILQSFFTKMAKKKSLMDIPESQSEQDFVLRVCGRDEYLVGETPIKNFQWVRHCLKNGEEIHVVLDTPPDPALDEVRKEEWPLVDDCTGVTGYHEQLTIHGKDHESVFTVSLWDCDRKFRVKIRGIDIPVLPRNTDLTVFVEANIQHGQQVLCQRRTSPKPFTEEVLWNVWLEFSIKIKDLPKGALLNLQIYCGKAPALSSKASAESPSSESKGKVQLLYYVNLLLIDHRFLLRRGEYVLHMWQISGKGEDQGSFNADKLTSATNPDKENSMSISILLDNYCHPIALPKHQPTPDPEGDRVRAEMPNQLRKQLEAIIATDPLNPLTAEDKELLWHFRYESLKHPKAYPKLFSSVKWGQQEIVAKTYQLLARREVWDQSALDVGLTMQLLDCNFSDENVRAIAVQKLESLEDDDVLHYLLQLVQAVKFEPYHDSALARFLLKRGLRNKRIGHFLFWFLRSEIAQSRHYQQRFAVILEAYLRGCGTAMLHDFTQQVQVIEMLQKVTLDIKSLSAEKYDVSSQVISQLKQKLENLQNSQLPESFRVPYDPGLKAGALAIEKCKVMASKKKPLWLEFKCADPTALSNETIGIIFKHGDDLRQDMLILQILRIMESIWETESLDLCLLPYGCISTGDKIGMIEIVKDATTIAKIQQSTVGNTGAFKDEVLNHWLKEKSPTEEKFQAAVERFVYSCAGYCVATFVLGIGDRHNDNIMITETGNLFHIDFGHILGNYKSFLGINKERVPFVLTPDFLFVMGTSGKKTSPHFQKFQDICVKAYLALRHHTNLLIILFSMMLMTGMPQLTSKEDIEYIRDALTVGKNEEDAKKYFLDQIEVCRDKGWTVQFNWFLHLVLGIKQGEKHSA
Experimental: as §1

[1] = molecular target: T1, Target kinase isoforms (PI3K, mTOR, RAF, MEK) (Homo sapiens, UniProt O00329); test: Target kinase isoforms 10-point IC50 determination (Supplementary Fig. 7); format: biochemical; conditions: PI3K delta
T1 sequence (O00329 1-1044): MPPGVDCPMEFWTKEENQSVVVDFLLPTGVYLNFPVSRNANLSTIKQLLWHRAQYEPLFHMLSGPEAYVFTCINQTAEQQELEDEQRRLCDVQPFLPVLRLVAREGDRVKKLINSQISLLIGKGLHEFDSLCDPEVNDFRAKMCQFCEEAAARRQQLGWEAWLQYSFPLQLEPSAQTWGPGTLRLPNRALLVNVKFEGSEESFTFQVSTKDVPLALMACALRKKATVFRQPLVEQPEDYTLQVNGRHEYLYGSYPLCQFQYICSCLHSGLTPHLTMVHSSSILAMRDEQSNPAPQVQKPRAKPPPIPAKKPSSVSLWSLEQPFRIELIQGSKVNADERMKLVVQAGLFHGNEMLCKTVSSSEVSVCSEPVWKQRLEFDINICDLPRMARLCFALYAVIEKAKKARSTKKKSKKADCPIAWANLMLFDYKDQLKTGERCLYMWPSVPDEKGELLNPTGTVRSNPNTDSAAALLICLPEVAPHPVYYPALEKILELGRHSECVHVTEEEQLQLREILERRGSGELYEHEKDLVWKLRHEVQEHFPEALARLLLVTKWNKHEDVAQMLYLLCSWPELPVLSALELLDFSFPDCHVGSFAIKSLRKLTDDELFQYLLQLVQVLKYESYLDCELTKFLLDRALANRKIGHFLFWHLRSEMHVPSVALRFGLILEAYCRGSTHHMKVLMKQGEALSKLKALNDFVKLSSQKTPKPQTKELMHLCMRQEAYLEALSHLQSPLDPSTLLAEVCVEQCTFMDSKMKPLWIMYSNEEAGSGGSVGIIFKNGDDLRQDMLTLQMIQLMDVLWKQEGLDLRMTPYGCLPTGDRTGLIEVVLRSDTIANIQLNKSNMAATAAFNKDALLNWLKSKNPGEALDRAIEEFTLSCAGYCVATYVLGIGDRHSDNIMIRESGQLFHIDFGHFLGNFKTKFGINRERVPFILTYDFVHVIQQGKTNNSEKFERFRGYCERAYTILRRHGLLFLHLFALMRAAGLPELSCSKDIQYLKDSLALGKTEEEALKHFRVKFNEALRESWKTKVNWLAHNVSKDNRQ
Procedure, shortened: (§2)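 Kinase activity across a 10-point dose series was corrected and normalized to vehicle-treated controls. IC50 values were derived by non-linear regression of percent activity. Kinome-wide percent inhibition was averaged over replicates.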

[2] = molecular target: Target kinase isoforms (PI3K, mTOR, RAF, MEK) (Homo sapiens, UniProt P15056); test: as above; format: biochemical; conditions: BRAF
Chain of Target kinase isoforms (PI3K, mTOR, RAF, MEK) (Homo sapiens, UniProt P15056) (P15056 whole entry, canonical isoform): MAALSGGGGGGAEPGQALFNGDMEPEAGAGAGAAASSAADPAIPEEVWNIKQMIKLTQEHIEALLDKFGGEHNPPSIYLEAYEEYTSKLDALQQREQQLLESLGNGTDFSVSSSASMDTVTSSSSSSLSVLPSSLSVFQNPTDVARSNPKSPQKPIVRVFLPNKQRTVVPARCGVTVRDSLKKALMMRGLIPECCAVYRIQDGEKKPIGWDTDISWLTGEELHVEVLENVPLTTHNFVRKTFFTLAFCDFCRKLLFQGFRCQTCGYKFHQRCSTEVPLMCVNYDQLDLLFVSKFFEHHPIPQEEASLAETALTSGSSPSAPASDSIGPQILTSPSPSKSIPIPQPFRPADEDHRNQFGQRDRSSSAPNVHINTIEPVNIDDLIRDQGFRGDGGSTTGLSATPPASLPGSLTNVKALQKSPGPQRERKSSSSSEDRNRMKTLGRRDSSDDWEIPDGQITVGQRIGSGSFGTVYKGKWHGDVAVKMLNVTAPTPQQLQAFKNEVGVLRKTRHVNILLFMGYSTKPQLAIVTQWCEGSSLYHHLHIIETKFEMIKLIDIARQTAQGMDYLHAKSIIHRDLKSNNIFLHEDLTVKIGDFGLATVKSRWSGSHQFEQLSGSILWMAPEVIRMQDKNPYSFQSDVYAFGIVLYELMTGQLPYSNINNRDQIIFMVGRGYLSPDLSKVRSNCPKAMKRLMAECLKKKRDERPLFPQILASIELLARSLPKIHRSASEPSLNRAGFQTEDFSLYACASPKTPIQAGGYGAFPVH
Procedure, shortened: as §2

SET-2 cells = test: SET-2 proliferation assay (CellTiter-Fluor); format: cell-based, human; conditions: 72 h
Experimental: Viable cells were counted by CellTiter-Fluor Assay (Promega) according to manufacturer’s protocol, and all fluorescence values were corrected by a no-cell control. […] Caspase activity was measured by Caspase-Glo 3/7 assay (Promega) according to the manufacturer’s protocol, and all luminescence values were corrected by a no-cell control. Dose response proliferation and Caspase activation data was normalized to vehicle treated control cells and analyzed by non-linear regression for determination of IC50 values. Data was generated from n = 3 independent experiments performed in replicate.

[3] = concentration 4.57 nM, 0.00457 µM

Chain of mTOR (P42345 1360-2549 limits assumed): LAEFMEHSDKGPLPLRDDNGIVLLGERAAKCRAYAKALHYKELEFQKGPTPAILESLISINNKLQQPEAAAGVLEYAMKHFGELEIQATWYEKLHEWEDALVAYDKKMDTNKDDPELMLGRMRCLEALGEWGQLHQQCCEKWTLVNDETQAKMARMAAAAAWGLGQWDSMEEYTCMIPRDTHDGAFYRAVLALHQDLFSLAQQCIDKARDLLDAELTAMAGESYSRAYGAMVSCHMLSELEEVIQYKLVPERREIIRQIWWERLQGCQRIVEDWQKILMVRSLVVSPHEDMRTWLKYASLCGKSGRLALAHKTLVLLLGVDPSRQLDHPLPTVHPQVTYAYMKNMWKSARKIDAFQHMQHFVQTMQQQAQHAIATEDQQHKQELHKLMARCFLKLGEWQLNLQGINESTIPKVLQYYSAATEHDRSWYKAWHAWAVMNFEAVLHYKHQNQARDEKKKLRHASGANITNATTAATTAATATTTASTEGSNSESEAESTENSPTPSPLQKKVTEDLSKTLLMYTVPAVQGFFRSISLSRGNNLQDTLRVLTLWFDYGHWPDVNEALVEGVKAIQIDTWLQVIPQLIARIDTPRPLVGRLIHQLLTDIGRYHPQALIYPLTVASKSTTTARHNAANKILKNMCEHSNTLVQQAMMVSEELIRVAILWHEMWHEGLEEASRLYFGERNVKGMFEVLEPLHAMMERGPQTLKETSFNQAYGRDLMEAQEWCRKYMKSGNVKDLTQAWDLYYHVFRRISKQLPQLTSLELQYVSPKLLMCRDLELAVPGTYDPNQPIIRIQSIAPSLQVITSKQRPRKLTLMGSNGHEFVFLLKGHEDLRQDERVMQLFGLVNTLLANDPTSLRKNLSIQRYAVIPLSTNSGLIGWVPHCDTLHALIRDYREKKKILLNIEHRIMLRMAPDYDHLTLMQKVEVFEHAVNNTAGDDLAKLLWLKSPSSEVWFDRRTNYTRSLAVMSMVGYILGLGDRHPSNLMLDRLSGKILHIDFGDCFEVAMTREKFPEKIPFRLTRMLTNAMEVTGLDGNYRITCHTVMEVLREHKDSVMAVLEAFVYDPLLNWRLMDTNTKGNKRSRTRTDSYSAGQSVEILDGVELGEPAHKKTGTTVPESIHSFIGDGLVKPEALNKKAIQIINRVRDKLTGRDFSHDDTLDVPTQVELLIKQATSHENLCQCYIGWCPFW

O=C(NOCCOCCOCCOCCC(=O)N1CCN(c2cnc3ccc(-c4cnc(Cl)c(NS(=O)(=O)c5ccc(F)cc5)c4)cc3n2)CC1)c1ccc(F)c(F)c1Nc1ccc(I)cc1F [LP-182, N-(2-(2-(2-(3-(4-(7-(6-chloro-5-((4-fluorophenyl)sulfonamido)pyridin-3-yl)quinoxalin-2-yl)piperazin-1-yl)-3-oxopropoxy)ethoxy)ethoxy)ethoxy)-3,4-difluoro-2-((2-fluoro-4-iodophenyl)amino)benzamide]
activity at 0.000495 µM (mTOR; 0.495 nM): 95% | Kinase Activity (%) (mTOR; 0.495 nM, 0.000495 µM): 99% and 98% and 101% and 94% and 96% | activity at 0.00152 µM (mTOR; 1.52 nM): 97% | Kinase Activity (%) (mTOR; 1.52 nM, 0.00152 µM): 99% and 100% and 94% (2×) | activity at 0.00457 µM (mTOR; 4.57 nM): 91% | Kinase Activity (%) (mTOR; 4.57 nM, 0.00457 µM): 92% and 94% and 87% and 88% | activity at 0.0412 µM (mTOR; 41.2 nM): 52% | Kinase Activity (%) (mTOR; 41.2 nM, 0.0412 µM): 63% and 57% (2×) and 47% (2×) | activity at 0.123 µM (mTOR; 123 nM): 29% | Kinase Activity (%) (mTOR; 123 nM, 0.123 µM): 30% (2×) and 32% and 31% | activity at […] (mTOR; 370 nM): 13% | Kinase Activity (%) (mTOR; 1110 nM, 1.11 µM): 4% and 3% (2×) and 5% and 1% and 2% | Kinase Activity (%) (mTOR; 3330 nM, 3.33 µM): 0% (4×) and -1% and -2% | Kinase Activity (%) (mTOR; 10000 nM, 10 µM): 2% and -1% (4×) and 1% | Kinase Activity (%) (PI3Kγ; 0.495 nM, 0.000495 µM): 106% and 101% and 126% and 100% and 96% and 89% and 105% and 98% | Kinase Activity (%) (PI3Kγ; 1.52 nM, 0.00152 µM): 108% and 97% and 115% and 123% and 99% (2×) and 105% and 90% and 88% and 93% | Kinase Activity (%) (PI3Kγ; 4.57 nM, 0.00457 µM): 89% and 94% (2×) and 106% and 98% and 93% and 87% and 82% and 77% and 92% | Kinase Activity (%) (PI3Kγ; 41.2 nM, 0.0412 µM): 50% (2×) and 48% and 43% and 55% and 47% and 37% and 30% and 31% and 32% | activity at 0.123 µM (PI3Kγ; 123 nM): 20% | Kinase Activity (%) (PI3Kγ; 123 nM, 0.123 µM): 21% (3×) and 25% and 22% and 19% and 16% (2×) and 13% | activity at […] (PI3Kγ; 370 nM): 6% | Kinase Activity (%) (PI3Kγ; 1110 nM, 1.11 µM): 1% (4×) and 4% and 0% and 2% (2×) and 3% (2×) | Kinase Activity (%) (PI3Kγ; 3330 nM, 3.33 µM): 0% (9×) and 1% | Kinase Activity (%) (PI3Kγ; 10000 nM, 10 µM): 4% and 0% (8×) and 2% | Kinase Activity (%) PI3K delta ([1]; concentration 0.0187 nM, 18.7 pM): 95% and 92% and 102% and 111% and 107% | Kinase Activity (%) PI3K delta ([1]; concentration 0.0562 nM, 56.2 pM): 105% and 92% and 107% and 113% and 96% | activity at 0.000495 µM ([1]; concentration 0.495 nM): 83% | activity at 0.00152 µM ([1]; concentration 1.52 nM): 71% | Kinase Activity (%) PI3K delta [1, 3]: 44% | Kinase Activity (%) PI3K delta ([1]; concentration 1110 nM, 1.11 µM): 6% and 2% and 7% and 4% | activity at 3.33 µM ([1]; concentration 3330 nM): 5% | Kinase Activity (%) PI3K delta ([1]; concentration 3330 nM, 3.33 µM): 6% | Kinase Activity (%) PI3K delta ([1]; concentration 10000 nM, 10 µM): 6% and 8% and 0% and 10% and 7% | activity at 0.000495 µM ([2]; concentration 0.495 nM): 100% | Kinase Activity (%) BRAF ([2]; concentration 0.495 nM, 0.000495 µM): 102% and 96% and 94% and 93% | activity at 0.00152 µM ([2]; concentration 1.52 nM): 101% | Kinase Activity (%) BRAF ([2]; concentration 1.52 nM, 0.00152 µM): 98% and 95% and 94% | activity at 0.00457 µM ([2]; concentration 4.57 nM): 90% | Kinase Activity (%) BRAF [2, 3]: 94% and 95% and 98% and 89% and 93% | Kinase Activity (%) BRAF ([2]; concentration 41.2 nM, 0.0412 µM): 49% and 38% and 54% and 59% and 53% | Kinase Activity (%) BRAF ([2]; concentration 1110 nM, 1.11 µM): -5% and -3% and 2% and 4% and 5% | Kinase Activity (%) BRAF ([2]; concentration 3330 nM, 3.33 µM): -5% and 1% and 4% | Growth (%) (SET-2 cells; 0.15625 µM, replicates (Fig. 2d)): 82.3145% and 74.8007% and 92.2424% and 95.23% | Growth (%) (SET-2 cells; 0.3125 µM, replicates (Fig. 2d)): 82.5275% and 93.6976% and 99.8925% and 94.4152% and 100.311% and 101.419% | Growth (%) (SET-2 cells; 0.625 µM, replicates (Fig. 2d)): 75.7591% and 84.1959% and 99.0777% and 114.242% and 99.4809% and 107.316% | Growth (%) (SET-2 cells; LP-182 0.625 µM, replicates): 94.49% and 102.748% and 105.532% and 109.611% and 111.9% and 115.3% and 97.84% and 53.1792% and 80% and 77.2254% and 41.1561% and 108.317% | Growth (%) (SET-2 cells; LP-182 5 µM, replicates): 88.52% and 52.137% and 67.274% and 67.1508% and 90.41% and 85.13% and 85.23% and 51.3295% and 50.867% (2×) and 75.3757% and 52.71% | Growth (%) (SET-2 cells; LP-182 10 µM, replicates): 67.22% and 40.3515% and 41.5713% and 43.4811% and 65.18% and 66.4% and 66.22% and 0% and 7.399% and 24.9711% (2×) and 44.7503% | Growth (%) (SET-2 cells; LP-182 20 µM, replicates): 33.48% and 38.226% and 25.5964% and 32.3363% and 26.13% and 25.92% and 25.14% and 0% (4×) and 25.7197% | Growth (%) (SET-2 cells; LP-182 40 µM, replicates): 13.5% and 29.145% and 27.7897% and 24.9557% and 14.69% and 13.53% and 12.78% and 0% (4×) and 22.7255% | IC50 (SET-2 cells; Homo sapiens, read-out: IC50, inhibition of cellular proliferation): 7.6 ± 0.82 µM
